Measured values reported in patent US20070155771A1, “Methods and means for treating protein conformational disorders” (priority 2003, published 2007).

Assays:
[1] = tested on: human A30P α-synuclein; assay: α-Synuclein degradation in inducible PC12 cell lines (western blot), A30P; assay type: cell-based, rat; conditions: 10 mM 3MA, 200 nM bafilomycin A1; for α-synuclein levels, mitotic A30P lines: 48 hours; for fold increase in α-synuclein levels (densitometry as a function of tubulin) vs control cells, A30P: +/− SE, significant
Excerpt: (§1) Human α-synuclein with a HA tag at the N-terminus and a 6His tag at the C-terminus was amplified from pHM6α-synuclein constructs (Furlong, R. A. et a; 1 (2000) Biochem. J. 346, 577581) and inserted into pTRE2 hyg vector (Clontech) using Nhe I/Sal I sites. Constructs were confirmed by sequencing before use. The pTRE2 hygα-synuclein construct and pTettTS (Clontech) were cotransfected into PC12 TetOn cells (Clontech), using Lipofectamine (Invitrogen) and Plus Reagent (Invitrogen). Single colonies were isolated using cloning cylinders (Sigma) and cells were grown and tested for α-synuclein expression upon induction. Cell lines were subjected to a further round of purification from single colonies to ensure that lines were pure.
(§2) PC12 cells were grown in Dulbecco's modified eagle's medium (DMEM, Sigma) supplemented with 10% horse serum (Sigma), 5% fetal bovine serum (Sigma), 100 U/ml penicillin/streptomycin, 2 mM L-glutamine, […] G418 (Invitrogen) and […] hygromycin B (Calbiochem) at 37° C., 10% CO2. To induce differentiation, cells were grown in media containing 1% horse serum and 100 ng/ml nerve growth factor (2.5S, Upstate Biotechnology) and incubated for about 5 days. Cells were induced to express synuclein with […] doxycycline (Sigma).
(§3) Cells were induced for 24 hours and then washed twice with media to remove doxycycline. Then cells were incubated in […] media containing either 10 mM 3-methyladenine (3MA, Sigma), 200 nM bafilomycin A1 (Sigma), […] rapamycin (Sigma), […] lactacystin (Sigma), […] epoxomicin (Affinity Research Products Ltd) or carrier controls (water or DMSO (Sigma)). 3MA and lactacystin were made up in water and rapamycin, epoxomicin and bafilomycin were dissolved in DMSO.
(§4) After 24 hours the media was replaced with fresh media plus drug and after a further 24 hours cell pellets were collected and stored at −80° C. until required.
(§5) Cell pellets were collected and stored at −80° C. until needed. Cells were lysed on ice in lysis buffer: 1% TritonX100, 20 mM TRIS pH7.5, 137 mM NaCl, 1 mM EGTA, 10% glycerol, 1.5 mM MgCl2 and protease inhibitor cocktail (Complete, Roche). […]
(§6) Each lane was loaded with protein from a similar number of cells, based on cell counting at the time of seeding. Proteins were transferred onto Hybond ECL nitrocellulose membrane (Amersham). α-Synuclein was detected with an antiHA monoclonal antibody (Covance) at 1:1000 dilution with 4-18 hours incubation. HRP conjugated antimouse antibody (Amersham) at 1:2000 dilution was then added to blots and antibody was detected using ECL blotting reagents (Amersham) and Hyperfilm ECL (Amersham). […]

[2] = tested on: human wild-type α-synuclein; assay: α-Synuclein degradation in inducible PC12 cell lines (western blot), wildtype; assay type: cell-based, rat; conditions: 10 mM 3MA, 200 nM bafilomycin A1; for α-synuclein levels, mitotic wildtype lines: 48 hours; for fold increase in α-synuclein levels (densitometry as a function of tubulin) vs control cells, wildtype: +/− SE, did not reach significance
Excerpt: as §1, §2, §3, §4, §5, §6

[3] = tested on: human A53T α-synuclein; assay: α-Synuclein degradation in inducible PC12 cell lines (western blot), A53T; assay type: cell-based, rat; conditions: 10 mM 3MA, 200 nM bafilomycin A1; 48 hours
Excerpt: as §1, with “pure. […]” for “pure.”
as §6

[4] = tested on: human wild-type, A30P and A53T α-synuclein; assay: α-Synuclein degradation in inducible PC12 cell lines (western blot), all forms; assay type: cell-based; conditions: for α-synuclein levels: induced 24 hours, doxycycline removed, drug 48 hours, cycling and differentiated cells, 0.2 mg/ml rapamycin, 10 mM lactacystin, 10 mM epoxomicin [sic]
Excerpt: as §1, §2, §3, §4
Cell pellets were collected and stored at −80° C. until needed. Cells were lysed on ice in lysis buffer: 1% TritonX100, 20 mM TRIS pH7.5, 137 mM NaCl, 1 mM EGTA, 10% glycerol, 1.5 mM MgCl2 and protease inhibitor cocktail (Complete, Roche).
Samples were then mixed with loading buffer: 62.5 mM TRIS pH 6.8, 2% SDS, 10% glycerol, 0.05% bromophenol blue, 100 mM dithiothreitol and 700 mM β-mercaptoethanol and boiled before loading onto 14% denaturing polyacrylamide gels.
Each lane was loaded with protein from a similar number of cells, based on cell counting at the time of seeding. Proteins were transferred onto Hybond ECL nitrocellulose membrane (Amersham). α-Synuclein was detected with an antiHA monoclonal antibody (Covance) at 1:1000 dilution with 4-18 hours incubation. HRP conjugated antimouse antibody (Amersham) at 1:2000 dilution was then added to blots and antibody was detected using ECL blotting reagents (Amersham) and Hyperfilm ECL (Amersham). Blots were stripped and then reprobed for α-tubulin (Sigma) at 1:1000 dilution.
PC12 cell lines as described above (i.e. mitotic and neuronally differentiated wild-type, A53T and A30P PC12 lines) were induced for 24 hours, then doxycycline was removed and the drugs were added for 48 hours. The trends we observed were similar in cells treated with drugs for 24 and 72 hours.

[5] = cited from earlier work
[6] = tested on: Drosophila HD model expressing the first 171 residues of huntingtin with 120 glutamines (120Q) in photoreceptors; assay: Drosophila HD model, pseudopupil analysis of photoreceptor neurodegeneration; assay type: in vivo
Description: A Drosophila line y; w; gmr-Q120 was crossed to w; iso2; iso3 to obtain progeny heterozygous for the transgene gmr-Q120. Flies were allowed to mate on normal food for 2-3 days and then transferred to food containing 1 μM rapamycin (Sigma) or DMSO. After eclosion, flies were placed on food containing 1 μM rapamycin or DMSO. Flies were transferred to newly prepared food every day.
Pseudopupil analysis: Adult male flies were decapitated and the head was mounted onto a microscope slide using nail polish. Analysis was performed with an optical microscope using a 60× objective with the observer blinded to the identity of the slides. Approximately 75 ommatidia were evaluated for each group (approx. 15 ommatidia in 5 individuals). Each experiment was done twice. The frequency of ommatidia with different numbers of visible rhabdomeres was based on all visible photoreceptor neurons, irrespective of their shape or brightness. Flies were raised at 25° C. with 12/12-h light/dark-cycle, 70% humidity.
A Drosophila HD model that expresses the first 171 residues of huntingtin with 120 glutamines (120Q) in photoreceptors (Jackson, G. R., et al. Neuron 21, 633-642 (1998)) was used to test whether long-term mTOR inhibition with rapamycin would have beneficial effects in vivo. The mutant flies show photoreceptor neurodegeneration, a phenotype that is easily quantifiable using the pseudopupil technique (Franceschini, N. & Kirschfeld K. Kybernetik 9, 159-182 (1971)). No degeneration is seen in flies expressing analogous constructs with 20Q (wild-type transgenics). The compound eye of Drosophila comprises many ommatidia. An ommatidium normally contains eight photoreceptor neurons with light gathering parts called rhabdomeres, seven of which can be easily visualized using the pseudopupil technique. The number of visible rhabdomeres in each ommatidium decreases as a function of time when there is photoreceptor neurodegeneration, like in the 120Q fly lines.

[7] = tested on: mTOR-dependent TOP-translation; assay: Luciferase reporter assay with non-typical TOP sequence in COS-7 cells co-transfected with Q23 or Q74; assay type: cell-based, African green monkey
Description: PC12 cells stably expressing Q23 or Q74 were transfected with a luciferase construct having a 5′ untranslated region from the eEF2 gene containing a terminal oligopyrimidine tract (TOP-luciferase) or without the TOP sequence (Control-luciferase) along with β-galactosidase (to control transfection efficiency). Transfected cells were maintained in serum free medium with doxycycline for 36 hours following which the cells were stimulated with 15% serum with or without rapamycin for 3 h. Cells were then lysed and luciferase assays were performed according to standard protocol. COS-7 cells were co-transfected with Q23 or Q74 with control- or TOP-luciferase along with β-gal and experiments were performed as above. […] Experiments were performed in sextuplicate and repeated several times.
The data in FIG. 11C is represented as explained above for FIG. 10C.

Molecule	α-synuclein levels, mitotic A30P lines [1]	fold increase in α-synuclein levels (densitometry as a function of tubulin) vs control cells, A30P [1] [fold]	α-synuclein levels, mitotic wildtype lines [2]	fold increase in α-synuclein levels (densitometry as a function of tubulin) vs control cells, wildtype [2] [fold]	α-synuclein levels in the A53T lines [3]	α-synuclein levels [4]	cell death or overt aggregate formation ([4]; proteasome inhibitors for 48 hours)	water solubility [5]	120Q-induced photoreceptor degeneration ([6]; 1 μM rapamycin in food from larval stage into adulthood, vs DMSO)	number of visible rhabdomeres per ommatidium ([6]; 1 μM rapamycin in food, two and three days after eclosion, p<0.0001)	frequency of ommatidia with seven rhabdomeres ([6]; HD 120Q flies, 2 and 3 days post-eclosion)	rapamycin-dependent reduction in luciferase activity (non-typical TOP sequence) ([7]; COS-7 cells transfected with Q23) [%]	rapamycin-dependent reduction in luciferase activity (non-typical TOP sequence) ([7]; COS-7 cells transfected with Q74)
Cn1cnc(N)c2ncnc1-2 [3-MA, 3-methyl adenine]	slight changes, at best	1.13	slight changes, at best	1.48	obvious increase	–	–	–	–	–	–	–	–
CO/C1=C\C(C)=C\[C@@H](C)[C@@H](O)[C@@H](C)C/C(C)=C/C=C/[C@H](OC)[C@@H]([C@@H](C)[C@@H](O)[C@H](C)[C@@]2(O)C[C@@H](O)[C@H](C)[C@@H](C(C)C)O2)OC1=O [BafA1, Bafilomycin A1]	slight changes, at best	1.19	slight changes, at best	1.12	obvious increase	–	–	–	–	–	–	–	–
CC[C@H](C)[C@H](NC(=O)[C@H]([C@@H](C)CC)N(C)C(C)=O)C(=O)N[C@H](C(=O)N[C@@H](CC(C)C)C(=O)[C@@]1(C)CO1)[C@@H](C)O [epoxomicin]	–	–	–	–	–	increase	did not cause increased cell death or overt aggregate formation	–	–	–	–	–	–
rapamycin	–	–	–	–	–	significantly reduce	–	poor	dramatically rescued	significantly increased	dramatically increases	23	no such effect
